The values that follow come from BindingDB's records for doi:10.1016/j.bmc.2020.115716 (Chemical Diversity Research Institute, 2020).

One test in a line: Inhibition of HCV genotype 2a NS5A infected in Huh7 cells assessed as reduction in viral replication incubated 3 days and measured by bright Glo-luciferase reporter gene assay.
Take `COC(=O)N[C@H](C(=O)N1CCC[C@H]1c1ncc(-c2ccc(C#CC#Cc3cnc([C@@H]4CCCN4C(=O)[C@H](NC(=O)OC)c4ccccc4)[nH]3)c(Oc3ccccc3)c2)[nH]1)C(C)C`: the IC50 came to 13 pM.

For the compound `COC(=O)N[C@H](C(=O)N1CCC[C@H]1c1ncc(-c2ccc(C#CC#Cc3cnc([C@@H]4CCCN4C(=O)[C@H](NC(=O)OC)c4ccccc4)[nH]3)c(Sc3ccccc3)c2)[nH]1)C(C)C`, the 50% inhibitory concentration (IC50) was found to be 14 pM.

As for `COC(=O)N[C@H](C(=O)N1CCC[C@H]1c1ncc(-c2ccc(C#CC#Cc3cnc([C@@H]4CCCN4C(=O)[C@H](NC(=O)OC)c4ccccc4)[nH]3)c(-c3ccc(N4CCN(C)CC4)cc3)c2)[nH]1)C(C)C`, the IC50 was determined as 23 pM.

For `COC(=O)N[C@H](C(=O)N1CCC[C@H]1c1ncc(-c2ccc(C#CC#Cc3cnc([C@@H]4CCCN4C(=O)[C@H](NC(=O)OC)c4ccccc4)[nH]3)c(-c3cccc(-c4ccccc4)c3)c2)[nH]1)C(C)C`, the IC50 amounted to 33 pM.

Consider `COC(=O)N[C@H](C(=O)N1CCC[C@H]1c1ncc(-c2ccc(C#CC#Cc3cnc([C@@H]4CCCN4C(=O)[C@H](NC(=O)OC)c4ccccc4)[nH]3)c(N3CCN(C)CC3)c2)[nH]1)C(C)C`, for which the IC50 worked out at 143 pM.

Turning to `COC(=O)N[C@H](C(=O)N1CCC[C@H]1c1ncc(-c2ccc(C#CC#Cc3cnc([C@@H]4CCCN4C(=O)[C@H](NC(=O)OC)c4ccccc4)[nH]3)cc2)[nH]1)C(C)C`, the IC50 turned out to be 16 pM.

The nature of a further test: Inhibition of HCV genotype 4a NS5A infected in Huh7 cells assessed as reduction in viral replication incubated 3 days and measured by bright Glo-luciferase reporter gene assay.
Turning to `COC(=O)N[C@H](C(=O)N1CCC[C@H]1c1ncc(-c2ccc(C#CC#Cc3cnc([C@@H]4CCCN4C(=O)[C@H](NC(=O)OC)c4ccccc4)[nH]3)c(Oc3ccccc3)c2)[nH]1)C(C)C`, the IC50 was 8 pM.

As to `COC(=O)N[C@H](C(=O)N1CCC[C@H]1c1ncc(-c2ccc(C#CC#Cc3cnc([C@@H]4CCCN4C(=O)[C@H](NC(=O)OC)c4ccccc4)[nH]3)c(Sc3ccccc3)c2)[nH]1)C(C)C`, the IC50 is 9 pM.

For the compound `COC(=O)N[C@H](C(=O)N1CCC[C@H]1c1ncc(-c2ccc(C#CC#Cc3cnc([C@@H]4CCCN4C(=O)[C@H](NC(=O)OC)c4ccccc4)[nH]3)c(-c3ccc(N4CCN(C)CC4)cc3)c2)[nH]1)C(C)C`, the IC50 is 548 pM.

`COC(=O)N[C@H](C(=O)N1CCC[C@H]1c1ncc(-c2ccc(C#CC#Cc3cnc([C@@H]4CCCN4C(=O)[C@H](NC(=O)OC)c4ccccc4)[nH]3)c(-c3cccc(-c4ccccc4)c3)c2)[nH]1)C(C)C`: the IC50 was determined as 11 pM.

On to `COC(=O)N[C@H](C(=O)N1CCC[C@H]1c1ncc(-c2ccc(C#CC#Cc3cnc([C@@H]4CCCN4C(=O)[C@H](NC(=O)OC)c4ccccc4)[nH]3)c(N3CCN(C)CC3)c2)[nH]1)C(C)C`, for which the half-inhibitory concentration (IC50) is greater than 10000 pM.

For `COC(=O)N[C@H](C(=O)N1CCC[C@H]1c1ncc(-c2ccc(C#CC#Cc3cnc([C@@H]4CCCN4C(=O)[C@H](NC(=O)OC)c4ccccc4)[nH]3)cc2)[nH]1)C(C)C`, the IC50 turned out to be 36 pM.

The nature of the next test: Inhibition of HCV genotype 1b NS5A infected in Huh7 cells assessed as reduction in viral replication incubated 3 days and measured by Bright-Glo luciferase assay.
Regarding `COC(=O)N[C@H](C(=O)N1CCC[C@H]1c1ncc(-c2ccc(C#CC#Cc3cnc([C@@H]4CCCN4C(=O)[C@H](NC(=O)OC)c4ccccc4)[nH]3)c(-c3ccc(N4CCN(C)CC4)cc3)c2)[nH]1)C(C)C`, the EC50 is 4 pM.

Take `COC(=O)N[C@H](C(=O)N1CCC[C@H]1c1ncc(-c2ccc(C#CC#Cc3cnc([C@@H]4CCCN4C(=O)[C@H](NC(=O)OC)c4ccccc4)[nH]3)c(N3CCN(C)CC3)c2)[nH]1)C(C)C`: the EC50 worked out at 34 pM.

On to `COC(=O)N[C@H](C(=O)N1CCC[C@H]1c1ncc(-c2ccc(C#CC#Cc3cnc([C@@H]4CCCN4C(=O)[C@H](NC(=O)OC)c4ccccc4)[nH]3)cc2)[nH]1)C(C)C`, for which the EC50 came to 7 pM.

The next test in a line: Inhibition of HCV genotype 5a NS5A infected in Huh7 cells assessed as reduction in viral replication incubated 3 days and measured by bright Glo-luciferase reporter gene assay.
Take `COC(=O)N[C@H](C(=O)N1CCC[C@H]1c1ncc(-c2ccc(C#CC#Cc3cnc([C@@H]4CCCN4C(=O)[C@H](NC(=O)OC)c4ccccc4)[nH]3)c(Oc3ccccc3)c2)[nH]1)C(C)C`: the IC50 came out at 19 pM.

Turning to `COC(=O)N[C@H](C(=O)N1CCC[C@H]1c1ncc(-c2ccc(C#CC#Cc3cnc([C@@H]4CCCN4C(=O)[C@H](NC(=O)OC)c4ccccc4)[nH]3)c(Sc3ccccc3)c2)[nH]1)C(C)C`, the IC50 came to 35 pM.

Regarding `COC(=O)N[C@H](C(=O)N1CCC[C@H]1c1ncc(-c2ccc(C#CC#Cc3cnc([C@@H]4CCCN4C(=O)[C@H](NC(=O)OC)c4ccccc4)[nH]3)c(-c3ccc(N4CCN(C)CC4)cc3)c2)[nH]1)C(C)C`, the half-inhibitory concentration (IC50) amounted to 1400 pM.

On to `COC(=O)N[C@H](C(=O)N1CCC[C@H]1c1ncc(-c2ccc(C#CC#Cc3cnc([C@@H]4CCCN4C(=O)[C@H](NC(=O)OC)c4ccccc4)[nH]3)c(-c3cccc(-c4ccccc4)c3)c2)[nH]1)C(C)C`, for which the IC50 amounted to 122 pM.

Turning to `COC(=O)N[C@H](C(=O)N1CCC[C@H]1c1ncc(-c2ccc(C#CC#Cc3cnc([C@@H]4CCCN4C(=O)[C@H](NC(=O)OC)c4ccccc4)[nH]3)c(N3CCN(C)CC3)c2)[nH]1)C(C)C`, the 50% inhibitory concentration (IC50) was found to be 3100 pM.

`COC(=O)N[C@H](C(=O)N1CCC[C@H]1c1ncc(-c2ccc(C#CC#Cc3cnc([C@@H]4CCCN4C(=O)[C@H](NC(=O)OC)c4ccccc4)[nH]3)cc2)[nH]1)C(C)C`: the IC50 amounted to 126 pM.

Another test can be described thus: Inhibition of HCV genotype 1a NS5A infected in Huh7 cells assessed as reduction in viral replication incubated 3 days and measured by bright Glo-luciferase reporter gene assay.
For `COC(=O)N[C@H](C(=O)N1CCC[C@H]1c1ncc(-c2ccc(C#CC#Cc3cnc([C@@H]4CCCN4C(=O)[C@H](NC(=O)OC)c4ccccc4)[nH]3)c(Oc3ccccc3)c2)[nH]1)C(C)C`, the IC50 turned out to be 214 pM.

As to `COC(=O)N[C@H](C(=O)N1CCC[C@H]1c1ncc(-c2ccc(C#CC#Cc3cnc([C@@H]4CCCN4C(=O)[C@H](NC(=O)OC)c4ccccc4)[nH]3)c(Sc3ccccc3)c2)[nH]1)C(C)C`, the IC50 came out at 257 pM.

Turning to `COC(=O)N[C@H](C(=O)N1CCC[C@H]1c1ncc(-c2ccc(C#CC#Cc3cnc([C@@H]4CCCN4C(=O)[C@H](NC(=O)OC)c4ccccc4)[nH]3)c(-c3ccc(N4CCN(C)CC4)cc3)c2)[nH]1)C(C)C`, the IC50 amounted to 113 pM.

For the compound `COC(=O)N[C@H](C(=O)N1CCC[C@H]1c1ncc(-c2ccc(C#CC#Cc3cnc([C@@H]4CCCN4C(=O)[C@H](NC(=O)OC)c4ccccc4)[nH]3)c(-c3cccc(-c4ccccc4)c3)c2)[nH]1)C(C)C`, the IC50 is 626 pM.

`COC(=O)N[C@H](C(=O)N1CCC[C@H]1c1ncc(-c2ccc(C#CC#Cc3cnc([C@@H]4CCCN4C(=O)[C@H](NC(=O)OC)c4ccccc4)[nH]3)c(N3CCN(C)CC3)c2)[nH]1)C(C)C`: the IC50 worked out at 473 pM.

`COC(=O)N[C@H](C(=O)N1CCC[C@H]1c1ncc(-c2ccc(C#CC#Cc3cnc([C@@H]4CCCN4C(=O)[C@H](NC(=O)OC)c4ccccc4)[nH]3)cc2)[nH]1)C(C)C`: the IC50 turned out to be 276 pM.

The next test in a line: Inhibition of HCV genotype 3a NS5A infected in Huh7 cells assessed as reduction in viral replication incubated 3 days and measured by bright Glo-luciferase reporter gene assay.
`COC(=O)N[C@H](C(=O)N1CCC[C@H]1c1ncc(-c2ccc(C#CC#Cc3cnc([C@@H]4CCCN4C(=O)[C@H](NC(=O)OC)c4ccccc4)[nH]3)c(Oc3ccccc3)c2)[nH]1)C(C)C`: the IC50 amounted to 40 pM.

For `COC(=O)N[C@H](C(=O)N1CCC[C@H]1c1ncc(-c2ccc(C#CC#Cc3cnc([C@@H]4CCCN4C(=O)[C@H](NC(=O)OC)c4ccccc4)[nH]3)c(Sc3ccccc3)c2)[nH]1)C(C)C`, the IC50 came to 91 pM.

As for `COC(=O)N[C@H](C(=O)N1CCC[C@H]1c1ncc(-c2ccc(C#CC#Cc3cnc([C@@H]4CCCN4C(=O)[C@H](NC(=O)OC)c4ccccc4)[nH]3)c(-c3ccc(N4CCN(C)CC4)cc3)c2)[nH]1)C(C)C`, the IC50 was 353 pM.

For the compound `COC(=O)N[C@H](C(=O)N1CCC[C@H]1c1ncc(-c2ccc(C#CC#Cc3cnc([C@@H]4CCCN4C(=O)[C@H](NC(=O)OC)c4ccccc4)[nH]3)c(-c3cccc(-c4ccccc4)c3)c2)[nH]1)C(C)C`, the IC50 was found to be 123 pM.

Take `COC(=O)N[C@H](C(=O)N1CCC[C@H]1c1ncc(-c2ccc(C#CC#Cc3cnc([C@@H]4CCCN4C(=O)[C@H](NC(=O)OC)c4ccccc4)[nH]3)c(N3CCN(C)CC3)c2)[nH]1)C(C)C`: the IC50 was greater than 10000 pM.

On to `COC(=O)N[C@H](C(=O)N1CCC[C@H]1c1ncc(-c2ccc(C#CC#Cc3cnc([C@@H]4CCCN4C(=O)[C@H](NC(=O)OC)c4ccccc4)[nH]3)cc2)[nH]1)C(C)C`, for which the IC50 was 329 pM.
